Results: US20060069132A1, “Azolecarboxamide herbicides” (priority 2004, published 2006)

Tests used:
large crabgrass = assay: Test B pre-/postemergence herbicide test; format: in vivo, Digitaria sanguinalis
Outline: (§1)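 Response was scored visually 13 to 15 days after treatment against untreated greenhouse controls, 0 meaning no effect and 100 complete control. Formulations (solvent mixture plus surfactant) went onto soil after planting, onto foliage of 1- to 4-leaf plants, and onto 2-leaf plants in a flooded paddy set including rice and barnyardgrass.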

Surinam grass = assay: Test B pre-/postemergence herbicide test; format: in vivo, Urochloa decumbens
Outline: as §1

cocklebur = assay: Test B pre-/postemergence herbicide test; format: in vivo, Xanthium strumarium
Outline: (§2)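 Seeds were planted and treated preemergence with compounds formulated in a non-phytotoxic solvent mixture containing surfactant, while plants at the 1- to 4-leaf stage (2 to 18 cm) received postemergence sprays. Flooded paddy plants were grown to the 2-leaf stage. After 13 to 15 days in a greenhouse, injury was visually rated 0–100 against untreated controls.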

lambsquarters = assay: Test B pre-/postemergence herbicide test; format: in vivo, Chenopodium album
Outline: as §1

barnyardgrass [1] = assay: Test B pre-/postemergence herbicide test; format: in vivo, Echinochloa crus-galli
Outline: as §2

giant foxtail = assay: Test B pre-/postemergence herbicide test; format: in vivo, Setaria faberi
Outline: as §1

[2] = test system: small flower umbrella sedge; assay: Test B flooded paddy test; format: in vivo, Cyperus difformis; details: 1000 g ai/ha, scale 0 to 100 (0 no effect, 100 complete control)
Outline: (§3)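 Postemergence plants were sprayed with formulated test chemicals at 2 to 18 cm height (1- to 4-leaf stage); paddy species were grown to the 2-leaf stage. After 13 to 15 days in a greenhouse, injury was rated visually against untreated controls on a 0–100 scale (0 = no effect, 100 = complete control).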

ducksalad = assay: Test B flooded paddy test; format: in vivo, Heteranthera limosa; details: 1000 g ai/ha, scale 0 to 100 (0 no effect, 100 complete control)
Outline: as §3

rice = assay: Test B flooded paddy test; format: in vivo, Oryza sativa; details: 1000 g ai/ha, scale 0 to 100 (0 no effect, 100 complete control)
Outline: as §3

morningglory = assay: Test B pre-/postemergence herbicide test; format: in vivo, Ipomoea coccinea
Outline: as §2

barnyardgrass [3] = assay: Test B flooded paddy test; format: in vivo, Echinochloa crus-galli; details: 1000 g ai/ha, scale 0 to 100 (0 no effect, 100 complete control)
Outline: as §3

wild oat = assay: Test B postemergence herbicide test; format: in vivo, Avena fatua
Outline: (§4)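 Each value is a visual 0–100 response rating taken against controls 13 to 15 days after treatment in the greenhouse. Plants received formulated chemical postemergence at the 1- to 4-leaf stage or, in flooded paddy, at the 2-leaf stage.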

blackgrass = assay: Test B postemergence herbicide test; format: in vivo, Alopecurus myosuroides
Outline: as §3

corn = assay: Test B pre-/postemergence herbicide test; format: in vivo, Zea mays
Outline: as §1

pigweed = assay: Test B pre-/postemergence herbicide test; format: in vivo, Amaranthus retroflexus
Outline: as §1

wheat = assay: Test B postemergence herbicide test; format: in vivo, Triticum aestivum; parameters: key to Wheat plant response rating: 0 = no effect, 100 = complete control
Outline: as §4

[4] = 125 g ai/ha, 0 = no effect, 100 = complete control, preemergence
[5] = 125 g ai/ha, visual rating, scale 0 (no effect) to 100 (complete control), postemergence
[6] = 500 g ai/ha, visual rating, 0 = no effect, 100 = complete control, preemergence
[7] = postemergence, 500 g ai/ha, scale 0 to 100, 0 is no effect, 100 is complete control
[8] = 125 g ai/ha; 0 = no effect, 100 = complete control; preemergence
[9] = 125 g ai/ha; visual rating, scale 0 (no effect) to 100 (complete control); postemergence
[10] = 500 g ai/ha; visual rating, 0 = no effect, 100 = complete control; preemergence
[11] = postemergence, 500 g ai/ha; scale 0 to 100, 0 is no effect, 100 is complete control
[12] = Postemergence, 500 g ai/ha, visual rating after 13 to 15 days, scale 0 (no effect) to 100 (complete control)
[13] = Preemergence, 500 g ai/ha, scale 0 to 100
[14] = postemergence, 125 g ai/ha, visual rating, scale 0 (no effect) to 100 (complete control)
[15] = preemergence, 125 g ai/ha, 0 to 100 scale, 0 is no effect, 100 is complete control
[16] = Postemergence, 500 g ai/ha; visual rating after 13 to 15 days, scale 0 (no effect) to 100 (complete control)
[17] = postemergence, 125 g ai/ha; visual rating, scale 0 (no effect) to 100 (complete control)
[18] = preemergence, 125 g ai/ha; 0 to 100 scale, 0 is no effect, 100 is complete control

In the case of `CCNC(=O)c1cccc(NC(=O)c2cc(C3(C)CC3)nn2CC)c1` [Compound 306], the “Crabgrass, Large plant response rating (0 to 100 scale)” value (large crabgrass; [4]) is reported as 100, the “Crabgrass, Large plant response rating” value (large crabgrass; [5]) is reported as 10 and the “Plant response rating, Crabgrass, Large” value (large crabgrass; [6]) is reported as 100. The “Crabgrass, Large plant response rating” value (large crabgrass; [7]) was 50, the “Surinam Grass plant response rating (0 to 100 scale)” value (Surinam grass; [8]) was 30 and the “Surinam Grass plant response rating” value (Surinam grass; [9]) was 10. For the same compound, the “Plant response rating, Surinam Grass” value (Surinam grass; [10]) was 90, the “Surinam Grass plant response rating” value (Surinam grass; [11]) was 30 and the “Cocklebur plant response rating (0 to 100 scale)” value (cocklebur; [4]) was 0. The “Cocklebur plant response rating” value (cocklebur; [5]) was 30, the “Plant response rating, Cocklebur” value (cocklebur; [6]) was 50 and the “Cocklebur plant response rating” value (cocklebur; [7]) was 70. For the same compound, the “Lambsquarters plant response rating (0 to 100 scale)” value (lambsquarters; [8]) was 100, the “Lambsquarters plant response rating” value (lambsquarters; [9]) was 70 and the “Plant response rating, Lambsquarters” value (lambsquarters; [10]) was 100. The “Lambsquarters plant response rating” value (lambsquarters; [11]) was 80, the “Barnyardgrass plant response rating (0 to 100 scale)” value (barnyardgrass [1]; [4]) was 60 and the “Barnyardgrass plant response rating” value (barnyardgrass [1]; [5]) was 10. For the same compound, the “Plant response rating, Barnyardgrass” value (barnyardgrass [1]; [6]) was 90, the “Barnyardgrass plant response rating” value (barnyardgrass [1]; [7]) was 10 and the “Foxtail, Giant plant response rating (0 to 100 scale)” value (giant foxtail; [4]) was 40. For the same compound, the “Foxtail, Giant plant response rating” value (giant foxtail; [5]) was 10, the “Plant response rating, Foxtail, Giant” value (giant foxtail; [6]) was 100 and the “Foxtail, Giant plant response rating” value (giant foxtail; [7]) was 40. For the same compound, the “Sedge, Umbrella plant response rating” value [2] was 80, the “Ducksalad plant response rating” value (ducksalad) was 80 and the “Rice plant response rating” value (rice) was 60. For the same compound, the “Morningglory plant response rating (0 to 100 scale)” value (morningglory; [8]) was 10, the “Plant response rating, Morningglory” value (morningglory; [10]) was 10 and the “Morningglory plant response rating” value (morningglory; [11]) was 70. The “Barnyardgrass plant response rating” value (barnyardgrass [3]) was 80, the “Oat, Wild plant response rating” value (wild oat; [9]) was 20 and the “Oat, Wild plant response rating” value (wild oat; [11]) was 30. For the same compound, the “Blackgrass plant response rating” value (blackgrass; [9]) was 10, the “Blackgrass plant response rating” value (blackgrass; [11]) was 30 and the “Corn plant response rating (0 to 100 scale)” value (corn; [4]) was 70. For the same compound, the “Corn plant response rating” value (corn; [5]) was 30, the “Plant response rating, Corn” value (corn; [6]) was 100 and the “Corn plant response rating” value (corn; [7]) was 30. For the same compound, the “Pigweed plant response rating (0 to 100 scale)” value (pigweed; [8]) was 100, the “Pigweed plant response rating” value (pigweed; [9]) was 70 and the “Plant response rating, Pigweed” value (pigweed; [10]) was 100. For the same compound, the “Pigweed plant response rating” value (pigweed; [11]) was 100, the “Wheat plant response rating” value (wheat; [9]) was 10 and the “Wheat plant response rating” value (wheat; [11]) was 20.
In the case of `CCn1nc(C(C)(C)C)cc1C(=O)Nc1cccc2c1CCN(C1CC1)C2=O` [Compound 64], the “Plant response rating, Crabgrass, Large” value (large crabgrass; [12]) is reported as 10, the “Crabgrass, Large plant response rating” value (large crabgrass; [13]) is reported as 100 and the “Crabgrass, Large plant response rating” value (large crabgrass; [14]) is reported as 10. The “Plant response rating, Crabgrass, Large” value (large crabgrass; [15]) was 20, the “Plant response rating, Surinam Grass” value (Surinam grass; [16]) was 10 and the “Surinam Grass plant response rating” value (Surinam grass; [17]) was 10. For the same compound, the “Plant response rating, Surinam Grass” value (Surinam grass; [18]) was 10, the “Plant response rating, Cocklebur” value (cocklebur; [12]) was 50 and the “Cocklebur plant response rating” value (cocklebur; [13]) was 0. For the same compound, the “Cocklebur plant response rating” value (cocklebur; [14]) was 30, the “Plant response rating, Cocklebur” value (cocklebur; [15]) was 0 and the “Plant response rating, Lambsquarters” value (lambsquarters; [16]) was 70. The “Lambsquarters plant response rating” value (lambsquarters; [17]) was 70, the “Plant response rating, Lambsquarters” value (lambsquarters; [18]) was 60 and the “Plant response rating, Barnyardgrass” value (barnyardgrass [1]; [12]) was 10. For the same compound, the “Barnyardgrass plant response rating” value (barnyardgrass [1]; [13]) was 90, the “Barnyardgrass plant response rating” value (barnyardgrass [1]; [14]) was 10 and the “Plant response rating, Barnyardgrass” value (barnyardgrass [1]; [15]) was 50. For the same compound, the “Plant response rating, Foxtail, Giant” value (giant foxtail; [12]) was 10, the “Foxtail, Giant plant response rating” value (giant foxtail; [13]) was 100 and the “Foxtail, Giant plant response rating” value (giant foxtail; [14]) was 10. For the same compound, the “Plant response rating, Foxtail, Giant” value (giant foxtail; [15]) was 10, the “Sedge, Umbrella plant response rating” value ([2]; visual rating, 13 to 15 days) was 90 and the “Ducksalad plant response rating” value (ducksalad; visual rating, 13 to 15 days) was 90. The “Rice plant response rating” value (rice; visual rating, 13 to 15 days) was 50, the “Plant response rating, Morningglory” value (morningglory; [16]) was 20 and the “Morningglory plant response rating” value (morningglory; [17]) was 0. The “Plant response rating, Morningglory” value (morningglory; [18]) was 0, the “Barnyardgrass plant response rating” value (barnyardgrass [3]; visual rating, 13 to 15 days) was 30 and the “Plant response rating, Oat, Wild” value (wild oat; [16]) was 20. The “Oat, Wild plant response rating” value (wild oat; [17]) was 20, the “Plant response rating, Blackgrass” value (blackgrass; [16]) was 10 and the “Blackgrass plant response rating” value (blackgrass; [17]) was 0. The “Plant response rating, Corn” value (corn; [12]) was 20, the “Corn plant response rating” value (corn; [13]) was 0 and the “Corn plant response rating” value (corn; [14]) was 10. The “Plant response rating, Corn” value (corn; [15]) was 0, the “Plant response rating, Pigweed” value (pigweed; [16]) was 50 and the “Pigweed plant response rating” value (pigweed; [17]) was 20. The “Plant response rating, Pigweed” value (pigweed; [18]) was 100, the “Plant response rating, Wheat” value (wheat; [16]) was 10 and the “Wheat plant response rating” value (wheat; [17]) was 0.
In the case of `CCN(C)C(=O)c1ccc(F)c(NC(=O)C2CC(C(C)(C)C)=NN2CC)c1` (racemic) [Compound 307], the “Crabgrass, Large plant response rating (0 to 100 scale)” value (large crabgrass; [4]) is reported as 90, the “Crabgrass, Large plant response rating” value (large crabgrass; [5]) is reported as 10 and the “Plant response rating, Crabgrass, Large” value (large crabgrass; [6]) is reported as 100. For the same compound, the “Crabgrass, Large plant response rating” value (large crabgrass; [7]) was 30, the “Surinam Grass plant response rating (0 to 100 scale)” value (Surinam grass; [8]) was 70 and the “Surinam Grass plant response rating” value (Surinam grass; [9]) was 10. For the same compound, the “Plant response rating, Surinam Grass” value (Surinam grass; [10]) was 90, the “Surinam Grass plant response rating” value (Surinam grass; [11]) was 30 and the “Cocklebur plant response rating (0 to 100 scale)” value (cocklebur; [4]) was 80. For the same compound, the “Cocklebur plant response rating” value (cocklebur; [5]) was 20, the “Plant response rating, Cocklebur” value (cocklebur; [6]) was 100 and the “Cocklebur plant response rating” value (cocklebur; [7]) was 30. For the same compound, the “Lambsquarters plant response rating (0 to 100 scale)” value (lambsquarters; [8]) was 100, the “Lambsquarters plant response rating” value (lambsquarters; [9]) was 60 and the “Plant response rating, Lambsquarters” value (lambsquarters; [10]) was 100. The “Lambsquarters plant response rating” value (lambsquarters; [11]) was 80, the “Barnyardgrass plant response rating (0 to 100 scale)” value (barnyardgrass [1]; [4]) was 80 and the “Barnyardgrass plant response rating” value (barnyardgrass [1]; [5]) was 0. For the same compound, the “Plant response rating, Barnyardgrass” value (barnyardgrass [1]; [6]) was 100, the “Barnyardgrass plant response rating” value (barnyardgrass [1]; [7]) was 10 and the “Foxtail, Giant plant response rating (0 to 100 scale)” value (giant foxtail; [4]) was 90. The “Foxtail, Giant plant response rating” value (giant foxtail; [5]) was 20, the “Plant response rating, Foxtail, Giant” value (giant foxtail; [6]) was 90 and the “Foxtail, Giant plant response rating” value (giant foxtail; [7]) was 30. For the same compound, the “Sedge, Umbrella plant response rating” value [2] was 90, the “Ducksalad plant response rating” value (ducksalad) was 80 and the “Rice plant response rating” value (rice) was 90. For the same compound, the “Morningglory plant response rating (0 to 100 scale)” value (morningglory; [8]) was 0, the “Morningglory plant response rating” value (morningglory; [9]) was 0 and the “Plant response rating, Morningglory” value (morningglory; [10]) was 10. The “Morningglory plant response rating” value (morningglory; [11]) was 0, the “Barnyardgrass plant response rating” value (barnyardgrass [3]) was 90 and the “Oat, Wild plant response rating” value (wild oat; [9]) was 0. For the same compound, the “Oat, Wild plant response rating” value (wild oat; [11]) was 20, the “Blackgrass plant response rating” value (blackgrass; [9]) was 10 and the “Blackgrass plant response rating” value (blackgrass; [11]) was 30. The “Corn plant response rating (0 to 100 scale)” value (corn; [4]) was 70, the “Plant response rating, Corn” value (corn; [6]) was 80 and the “Corn plant response rating” value (corn; [7]) was 10. For the same compound, the “Pigweed plant response rating (0 to 100 scale)” value (pigweed; [8]) was 100, the “Pigweed plant response rating” value (pigweed; [9]) was 50 and the “Plant response rating, Pigweed” value (pigweed; [10]) was 100. The “Pigweed plant response rating” value (pigweed; [11]) was 60, the “Wheat plant response rating” value (wheat; [9]) was 0 and the “Wheat plant response rating” value (wheat; [11]) was 20.
